29 compounds from patent US7371748B2, “Benzothiazole derivatives” (Hoffman-La Roche Inc., priority 2003, dated 2008) can be followed below.

Series [1] deals with T1, human adenosine A2A receptor (Homo sapiens, UniProt P29274).
T1 construct: expressed in transfected cells; host or cells: CHO cells, Semliki Forest virus expression system; membrane preparation
Description: [3H]-SCH-58261 binding assay, human adenosine A2A receptor. The conditions noted are these: human A2A receptor recombinantly expressed in CHO cell membranes, [3H]-SCH-58261 1 nM, Ki from IC50 by Cheng-Prussoff equation. Here is the method:
Human Adenosine A2A Receptor
The human adenosine A2A receptor was recombinantly expressed in chinese hamster ovary (CHO) cells using the semliki forest virus expression system. Cells were harvested, washed twice by centrifugation, homogenized and again washed by centrifugation. The final washed membrane pellet was suspended in a Tris (50 mM) buffer containing 120 mM NaCl, 5 mM KCl, 2 mM CaCl2 and 10 mM MgCl2 (pH 7.4) (buffer A). The [^3H]-SCH-58261 (Dionisotti et al., […], Br J Pharmacol 121, 353; 1 nM) binding assay was carried out in 96-well plates in the presence of 2.5 μg of membrane protein, 0.5 mg of Ysi-poly-1-lysine SPA beads and 0.1 U adenosine deaminase in a final volume of 200 μl of buffer A. Non-specific binding was defined using xanthine amine congener (XAC; 2 μM). Compounds were tested at 10 concentrations from 10 μM-0.3 nM. All assays were conducted in duplicate and repeated at least two times. Assay plates were incubated for 1 hour at room temperature before centrifugation and then bound ligand determined using a Packard Topcount scintillation counter. IC50 values were calculated using a non-linear curve fitting program and Ki values calculated using the Cheng-Prussoff equation.

The mark [2] stands for this setting: read-out: Ha2 (pKi) (converted).

Like-named read-outs stand apart in the source and are kept apart here.

T1 sequence (P29274 whole entry): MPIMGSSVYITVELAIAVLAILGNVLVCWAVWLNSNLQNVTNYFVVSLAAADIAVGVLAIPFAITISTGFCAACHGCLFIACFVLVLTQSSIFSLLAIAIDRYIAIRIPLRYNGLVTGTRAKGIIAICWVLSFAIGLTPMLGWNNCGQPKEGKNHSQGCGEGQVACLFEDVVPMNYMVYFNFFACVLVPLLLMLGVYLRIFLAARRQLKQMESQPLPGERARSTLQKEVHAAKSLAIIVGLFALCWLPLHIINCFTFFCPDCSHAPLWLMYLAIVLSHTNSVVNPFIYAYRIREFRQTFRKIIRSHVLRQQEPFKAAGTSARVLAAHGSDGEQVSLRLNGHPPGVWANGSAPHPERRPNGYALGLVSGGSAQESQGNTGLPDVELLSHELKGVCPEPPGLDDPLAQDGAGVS

For the compound `COc1ccc(C2CCOCC2)c2sc(NC(=O)N(C)C3CC4CCC3O4)nc12` (racemic) [Example 26, (rac)-(exo)-3-[4-Methoxy-7-(tetrahydro-pyran-4-yl)-benzothiazol-2-yl]-1-methyl-1-(7-oxa-bicyclo[2.2.1]hept-2-yl)-urea], the melting point is 197 to 200 °C. For the same compound, in series [1] (setting [2]), the Ki is 1 nM. `COc1ccc(C2CCOCC2)c2sc(NC(=O)N(C)C3CC4CCC3O4)nc12` (single isomer, unassigned) [Example 55, (exo)-(+)-3-[4-Methoxy-7-(tetrahydro-pyran-4-yl)-benzothiazol-2-yl]-1-methyl-1-(7-oxa-bicyclo[2.2.1]hept-2-yl)-urea] displayed a melting point of 185 to 188 °C. The Ki in series [1] (setting [2]) was 1.26 nM.

For `COc1ccc(C2CCOCC2)c2sc(NC(=O)N(C)C3CC4CCC3O4)nc12` (single isomer, unassigned) [Example 56, (exo)-(−)-3-[4-Methoxy-7-(tetrahydro-pyran-4-yl]-benzothiazol-2-yl)-1-methyl-1-(7-oxa-bicyclo[2.2.1]hept-2-yl)-urea], the melting point lay in the range of 155 to 190 °C. Further, the Ki in series [1] (setting [2]) was 3.16 nM. For the compound `COc1ccc(C2COCCOC2)c2sc(NC(=O)c3ccc(C)s3)nc12` [Example 8, 5-Methyl-thiophene-2-carboxylic acid (7-[1,4]dioxepan-6-yl-4-methoxy-benzothiazol-2-yl)-amide], the Ki in series [1] (setting [2]) was 1 nM. On the same count and under the same terms, for `COc1ccc(C(=O)Nc2nc3c(OC)ccc(C4COCCOC4)c3s2)cc1` [Example 9, N-(7-[1,4]Dioxepan-6-yl-4-methoxy-benzothiazol-2-yl)-4-methoxy-benzamide] the value was 2 nM; for `COc1ccc(C2COCCOC2)c2sc(NC(=O)c3ccc(F)cc3)nc12` [Example 10, N-(7-[1,4]Dioxepan-6-yl-4-methoxy-benzothiazol-2-yl)-4-fluoro-benzamide], 1.26 nM. Still for that read-out and setting: the same measure for `COc1ccc(C2COCCOC2)c2sc(NC(=O)C3CCCCC3)nc12` [Example 11, Cydohexanecarboxylic acid (7-[1,4]dioxepan-6-yl-4-methoxy-benzothiazol-2-yl)-amide]: 2.51 nM; for `COc1ccc(C2COCCOC2)c2sc(NC(=O)c3cncn3C)nc12` [Example 14, 3-Methyl-3H-imidazole-4-carboxylic acid (7-[1,4]dioxepan-6-yl-4-methoxy-benzothiazol-2-yl)-amide]: 1 nM. Turning to `COc1ccc(C2COCCOC2)c2sc(NC(=O)c3ccncc3)nc12` [Example 15, N-(7-[1,4]Dioxepan-6-yl-4-methoxy-benzothiazol-2-yl)-isonicotinamide], the Ki in series [1] (setting [2]) was 2 nM.

For the compound `COc1ccc(C2CCOCC2)c2sc(NC(=O)N(C)C3CCN(C)CC3)nc12` [Example 20, 3-[4-Methoxy-7-(tetrahydro-pyran-4-yl)-benzothiazol-2-yl]-1-methyl-1-(1-methyl-piperidin-4-yl)-urea], the melting point is 152 to 155 °C. Also, the Ki in series [1] (setting [2]) was 2.51 nM. The like results for `COc1ccc(C2CCOCC2)c2sc(NC(=O)N(C)[C@H]3CC[C@H](O)CC3)nc12` [Example 21, trans-1-(4-Hydroxy-cyclohexyl)-3-[4-methoxy-7-(tetrahydro-pyran-4-yl)-benzothiazol-2-yl]-1-methyl-urea] were, in that order, 160 °C and 2.51 nM. `COc1ccc(C2CCOCC2)c2sc(NC(=O)N(C)[C@H]3CC[C@@H](O)CC3)nc12` [Example 22, cis-1-(4-Hydroxy-cyclohexyl)-3-[4-methoxy-7-(tetrahydro-pyran-4-yl)-benzothiazol-2-yl]-1-methyl-urea] yielded a melting point of 191 to 193 °C. Moreover, the Ki in series [1] (setting [2]) is 2.51 nM. The like results for `COc1ccc(C2CCOCC2)c2sc(NC(=O)N(C)[C@H]3CC[C@@](C)(O)CC3)nc12` [Example 23, 1-(4-cis-Hydroxy-4-methyl-cyclohexyl)-3-[4-methoxy-7-(tetrahydro-pyran-4-yl)-benzothiazol-2-yl]-1-methyl-urea] were, in that order, 211 to 213 °C and 2 nM.

As to `COc1ccc(C2CCOCC2)c2sc(NC(=O)N(C)C3CCOCC3)nc12` [Example 24, 3-[4-Methoxy-7-(tetrahydro-pyran-4-yl)-benzothiazol-2-yl]-1-methyl-1-(tetrahydro-pyran-4-yl)-urea], the melting point lay within 237 to 238 °C. The Ki in series [1] (setting [2]) was 3.16 nM.

As for `COc1ccc(C2CCOCC2)c2sc(NC(=O)N(C)CC3CCOC3)nc12` (centres unmarked) [Example 25, 3-[4-Methoxy-7-(tetrahydro-pyran-4-yl)-benzothiazol-2-yl]-1-methyl-1-(tetrahydro-furan-3-ylmethyl)-urea], the melting point is 185 to 186 °C. For `COc1ccc(C2CCOCC2)c2sc(NC(=O)N3CCC4(CC3)OCCO4)nc12` [Example 29, 1,4-Dioxa-8-aza-spiro[4.5]decane-8-carboxylic acid [4-methoxy-7-(tetrahydro-pyran-4-yl)-benzothiazol-2-yl]-amide], the Ki in series [1] (Ha2 (pKi)) was 1.58 nM.

With `COc1ccc(C2CCOCC2)c2sc(NC(=O)N3CCC(C)(O)CC3)nc12` [Example 30, 4-Hydroxy-4-methyl-piperidine-1-carboxylic acid [4-methoxy-7-(tetrahydro-pyran-4-yl)-benzothiazol-2-yl]-amide], the melting point fell in the range of 90 to 95 °C. Moreover, in series [1] (setting [2]), the Ki was 1.26 nM.

On to `COc1ccc(C2CCOCC2)c2sc(NC(=O)N3C[C@@H]4C[C@H]3CO4)nc12` [Example 31, (1S,4S)-2-Oxa-5-aza-bicyclo[2.2.1]heptane-5-carboxylic acid [4-methoxy-7-(tetrahydro-pyran-4-yl)-benzothiazol-2-yl]-amide], for which the melting point fell in the range of 193 to 197 °C. For the same compound, in series [1] (setting [2]), the Ki was 1.26 nM. The corresponding values for `COc1ccc(C2CCOCC2)c2sc(NC(=O)N3CC4CCC3CC4)nc12` [Example 32, 2-Aza-bicyclo[2.2.2]octane-2-carboxylic acid [4-methoxy-7-(tetrahydro-pyran-4-yl)-benzothiazol-2-yl]-amide] are 237 to 239 °C and 2 nM. The corresponding values for `COc1ccc(C2CCOCC2)c2sc(NC(=O)CC3CCOCC3)nc12` [Example 33, N-[4-Methoxy-7-(tetrahydro-pyran-4-yl)-benzothiazol-2-yl]-2-(tetrahydro-pyran-4-yl)-acetamide] are 218 to 220 °C and 1.58 nM.

With `COc1ccc(C2COCCOC2)c2sc(NC(=O)c3ccc(CCl)cc3)nc12` [Example 39, 4-Chloromethyl-N-(7-[1,4]dioxepan-6-yl-4-methoxy-benzothiazol-2-yl)-benzamide], the Ki in series [1] (setting [2]) is 1.58 nM.

As to `COc1ccc(C2COCCOC2)c2sc(NC(=O)c3cnn(C)c3)nc12` [Example 43, 1-Methyl-1H-pyrazole-4-carboxylic acid (7-[1,4]dioxepan-6-yl-4-methoxy-benzothiazol-2-yl)-amide], in series [1] (setting [2]), the Ki was 0.398 nM. On the same count and under the same terms, for `CCC(=O)N(C)Cc1ccc(C(=O)Nc2nc3c(OC)ccc(C4COCCOC4)c3s2)cc1` [Example 44, N-(7-[1,4]Dioxepan-6-yl-4-methoxy-benzothiazol-2-yl)-4-[(methyl-propionyl-amino)-methyl]-benzamide] the value was 2.51 nM.

In the case of `COc1ccc(C2COCCOC2)c2sc(NC(=O)c3ccnc(N4CCCC4)c3)nc12` [Example 46, N-(7-[1,4]Dioxepan-6-yl-4-methoxy-benzothiazol-2-yl)-2-pyrrolidin-1-yl-isonicotinamide], the Ki in series [1] (setting [2]) is 2.51 nM.

Turning to `COc1ccc(C2COCCOC2)c2sc(NC(=O)c3ccnc(CN4CCCC4)c3)nc12` [Example 47, N-(7-[1,4]Dioxepan-6-yl-4-methoxy-benzothiazol-2-yl)-2-pyrrolidin-1-ylmethyl-isonicotinamide], the melting point lay within 108 to 111 °C. As to `COCCN(C)Cc1cc(C(=O)Nc2nc3c(OC)ccc(C4COCCOC4)c3s2)ccn1` [Example 48, N-(7-[1,4]Dioxepan-6-yl-4-methoxy-benzothiazol-2-yl)-2-{[(2-methoxy-ethyl)-methyl-amino]-methyl}-isonicotinamide], the melting point lay in the range of 100 to 107 °C. Still for that read-out and setting: for `COc1ccc(C2CCOCC2)c2sc(NC(=O)[C@H]3CCCO3)nc12` [Example 51, (R)-Tetrahydro-furan-2-carboxylic acid [4-methoxy-7-(tetrahydro-pyran-4-yl)-benzothiazol-2-yl]-amide] the value was 158 to 161 °C. Still for that read-out and setting: for `COc1ccc(C2CCOCC2)c2sc(NC(=O)N(C)C3CCN(N(C)C)CC3)nc12` [Example 53, 1-(1-Dimethylamino-piperidin-4-yl)-3-[4-methoxy-7-(tetrahydro-pyran-4-yl)-benzothiazol-2-yl]-1-methyl-urea] the value was 167 to 170 °C; for `COc1ccc(C2CCOCC2)c2sc(NC(=O)CC3CCCO3)nc12` (centres unmarked) [Example 54, N-[4-Methoxy-7-(tetrahydro-pyran-4-yl)-benzothiazol-2-yl]-2-(tetrahydro-furan-2-yl)-acetamide], 170 to 174 °C.

The term melting point denotes the temperature of the solid-liquid transition.
